The subject of data set [1] is tumors. The conditions noted are these: Japanese Patent Publication (Kokai) No. 53-5162; cited from earlier work.
A short description of data set [2]: Acute toxicities (LD50). Particulars: mouse, in vivo, ip; ICR male mice, 5 weeks old, intraperitoneal. As for the experimental part:
For determining acute toxicities ICR male mice, 5 weeks old, were used. The drug was administered intraperitoneally.

The conditions of data set [3]: Japanese Patent Publication (Kokai) No. 53-5162; cited from earlier work.
In data set [4] the test system is Lewis lung carcinoma. Briefly: Antitumor effect on experimental tumors in mice, Lewis lung carcinoma (solid), tumor inhibitory ratio. In kind it is in vivo, BDF1 male mice. The conditions noted are these: 100 mg/kg, i.p., schedule 5q2d (day 1, 3, 5, 7 and 9), tumors weighed at day 13. As for the experimental part: The antitumor activities of the compounds of the present invention were estimated according to the methods described in "Cancer chemotherapy reports" Part 3, Vol. 3, (No. 2) p. 13 (1972).
For determining antitumor activities, BDF1 male mice, 5 weeks old, weighing between 18 and 22 grams were used. Each test group was composed of 6 to 7 mice. Two million cells of Lewis Lung Carcinoma were injected in the hind leg. The drug was administered intraperitoneally at day 1, 3, 5, 7 and 9 (or 5q2d).
After killing the mice at day 13, tumors were removed and weighed. The tumor inhibitory ratio was calculated according to the following formula. [formula]

Structures are written as SMILES.

Data on 6 compounds can be found in patent US4332806A, “Antitumor and immunosuppresive 4-carbamoyl imidazolium-5-olate derivatives, pharmaceutical composition and production thereof” (Sumitomo Chemical Company, Limited, priority 1979, dated 1982).

For the compound `NC(=O)c1[nH]cnc1OC(=O)C12CC3CC(CC(C3)C1)C2` [Compound (IV), 5-Carbamoyl-1H-imidazole-4-yl adamantane-1'-carboxylate], the “antitumor activity, known (in words)” value in data set [1] is “antitumor and immunosuppressive activity”. Besides, the LD50 in data set [2] fell in the range of 250 to 297 mg/kg. In addition, in data set [3], the “immunosuppressive activity, known (in words)” value is “immunosuppressive activity”.
On to `CC12CC3(C)CC(C)(C1)CC(C(=O)Oc1nc[nH]c1C(N)=O)(C2)C3` [5-carbamoyl-1H-imidazole-4-yl 3',5',7'-trimethyladamantane-1'-carboxylate], for which the LD50 in data set [2] lay within 670 to 1000 mg/kg. In addition, the “Inhibition Ratio, Lewis lung carcinoma (solid)” value (from here on “Inhibition Ratio”) in data set [4] is 90%.
Take `NC(=O)c1[nH]cnc1OC(=O)C12CC3CC(CC(Cl)(C3)C1)C2` [5-carbamoyl-1H-imidazole-4-yl 3'-chloroadamantane-1'-carboxylate]: the LD50 in data set [2] is over 1000 mg/kg. The “Inhibition Ratio” value in data set [4] came to 71.1%.
`NC(=O)c1[nH]cnc1OC(=O)C12CC3CC(CC(F)(C3)C1)C2` [5-carbamoyl-1H-imidazole-4-yl 3'-fluoroadamantane-1'-carboxylate] had an LD50 in data set [2] of 670 to 1000 mg/kg. Moreover, the “Inhibition Ratio” value in data set [4] was 65%.
In data set [2], `NC(=O)c1[nH]cnc1OC(=O)C12CC3CC(CC(Br)(C3)C1)C2` [5-carbamoyl-1H-imidazole-4-yl 3'-bromoadamantane-1'-carboxylate] gave an LD50 of 670 to 1000 mg/kg. The “Inhibition Ratio” value in data set [4] is listed as 66.2%.
Turning to `NC(=O)c1[nH]cnc1OC(=O)C12CC3CC(C1)CC(c1ccccc1)(C3)C2` [5-carbamoyl-1H-imidazole-4-yl 3'-phenyladamantane-1'-carboxylate], in data set [4], the “Inhibition Ratio” value is given as 85.7%.

By LD50 is commonly meant the dose expected to kill half of the subjects tested. Low values mean a more toxic substance, high ones a less toxic substance.
